Literature values, collected in US20050019366A1, “Drug-coated stents and methods of use therefor” (priority 2002, published 2005).

System: restenosis after angioplasty
Conditions: probucol 500 mg; twice daily for four weeks prior and six months after angioplasty

CC(C)(Sc1cc(C(C)(C)C)c(O)c(C(C)(C)C)c1)Sc1cc(C(C)(C)C)c(O)c(C(C)(C)C)c1 [Probucol, probucol]
reduction of the rate of restenosis after angioplasty: ~50%
